This is an account of results in patent US5455248A, “Substituted 6,11-ethano-6,11-dihydrobenzo[b] quinolizinium salts, and compositions and method of use thereof” (Sterling Winthrop Inc., priority 1993, dated 1995).

The target in experiment [1] is PCP recognition sites (PCP receptor), rat whole brain membranes. Nature of the experiment: [^3 H]TCP Radioreceptor Assay (internal screen). To be noted: for Ki / [^3 H]TCP (internal screen) Percent (%) inhibition @10 μM: [^3 H]TCP approx. 1 nM, room temperature 25 min; for Ki: mean of at least two separate determinations. Format: binding, Male Sprague-Dawley rats. As to the method:
[^3 H]TCP binding to PCP recognition sites was performed as described by Vignon et al. Brain Research 1983, 280, 194-197. Male Sprague-Dawley rats were sacrificed by decapitation, and whole brains were homogenized in 10 volumes (wt/vol) of cold Tris-HCl buffer (50 mM, pH 7.7) using a Brinkmann Polytron (setting 6, 30 sec). The homogenate was centrifuged at 40,000×g for 10 min at 4° C. The supernatant was decanted, and the homogenization and centrifugation steps were repeated twice as described above. Following this, the pellet was resuspended in Tris-HCl (5 mM, pH 7.7) at a tissue concentration of 0.5-0.75 g/ml, and one ml aliquots were frozen at -70° C. until use. The binding characteristics for PCP recognition sites were not altered by the freezing of membrane suspensions.
On the day of the assay, membrane aliquots were thawed, resuspended in fresh 5 mM Tris-HCl buffer at a tissue concentration of 1 mg/ml, and stored on ice until use. Each assay tube contained 100 μl of [^3 H]TCP at a final concentration of approximately 1 nM, 100 μl of various concentrations of the compounds of interest, 500 μl of the tissue suspension and 300 μl of buffer to a final assay volume of 1 ml and a final protein concentration of 0.5 mg/tube. Non-specific binding was defined by addition of […]. All tubes were incubated at room temperature for 25 min before termination of the reaction by rapid filtration over Whatman GF/B glass fiber filters that had been presoaked in a solution of 0.5% polyethylenimine for at least 1 hr prior to use. Filters were washed with three 4 ml volumes of cold Tris buffer. Following addition of scintillation cocktail, the amount of bound radioactivity was determined by liquid scintillation spectrometry using a Beckman LS 5000TA liquid scintillation counter with an efficiency for tritium of approximately 55%. Inhibition constants (Ki values) were calculated using the EBDA/LIGAND program (McPherson, J. Pharmacol. Meth. 1985, 14, 213-228), purchased from Elsevier/Biosoft, Inc. Results are reported as Ki values which are expressed as the mean of at least two separate determinations, or as a percent (%) inhibition of binding at 10 μM.

The test system of experiment [2] is NMDA-induced neurotoxicity in cultured cortical neurons. Nature of the experiment: Antagonism of NMDA-induced Neurotoxicity in Cultured Neurons. In kind it is cell-based, Swiss-Webster mice. The settings on record: 500 μM NMDA for 30 minutes, LDH activity after 24 hours. How it is done: Pregnant, Swiss-Webster mice were obtained from Taconic Farms (Germantown, N.Y.) and sacrificed 16 days post conception. Fetuses were removed and placed in a sterile dish containing Hank's balanced salt solution (HBSS), pH 7.4. Brain cortices were dissected, meninges were removed, the tissue was minced and placed into a solution of HBSS containing 0.25% (w/v) trypsin at 37° C. for 15 minutes. Tissue was then triturated with a sterile pasteur pipet, diluted with minimal essential media (Gibco 330-1430), pH 7.4, supplemented with 10% horse serum, 10% fetal calf serum, 2 mM 1-glutamine, 21 mM d-glucose, 2.2 g/L sodium bicarbonate, 1000 U/ml penicillin, and 1,000 μg/ml streptomycin. Cells were plated onto Falcon primaria 96 well plates at a final density of 50,000 cells/well and incubated at 37° C. in the presence of 5% (v/v) carbon dioxide. After 5 days, plating media was replaced with maintenance media containing minimal essential media (Gibco 330-1430), pH 7.4, supplemented with 10% horse serum, […], 21 mM d-glucose, 2.2 g/1 sodium bicarbonate,1,000 U/ml penicillin, 1,000 μg/ml streptomycin, and 10 μM cytosine arabinoside. On days 7 and 10, media was replaced with maintenance media as above lacking the cytosine arabinoside. Experiments were conducted on day 13.
Day 13 cultured cortical neurons were washed twice with minimal essential media, pH 7.4 and then exposed for 30 minutes to 500 μM N-methyl-D-aspartic acid (NMDA) with or without varying concentrations of test agents. Dizocilpine (MK-801) at a final concentration of 10 μM MK-801 was routinely included as a positive control. MK-801 and test agents were prepared in minimal essential media supplemented with 21 mM d-glucose and 2.2 g/L sodium bicarbonate (MEM). After 30 minutes, media was replaced with MEM alone. Exposure of neurons to test agents was limited to the NMDA treatment period. Twenty-four hours after removal of NMDA, an aliquot of media from each well was removed for assessment of cell injury by determining lactate dehydrogenase (LDH) activity by the method of Wroblewski and LaDue Proc. Soc. […]

Experiment [3] has as its system PCP recognition sites (PCP receptor), whole rat forebrain membranes. The experiment in a line: [^3 H]TCP Radioreceptor Assay (external screen). Format: binding. The settings on record: 25° C. for 60 minutes. How it is done: Representative compounds of the invention were also tested in an external [^3 H]TCP radioreceptor assay using the following protocol:
A procedure similar to that described above for the [^3 H]TCP radioreceptor assay (internal screen) was utilized except that the whole rat forebrain membranes were incubated at 25° C. for 60 minutes rather than at room temperature for 25 minutes, before termination of the reaction. The results are reported as a percent (%) inhibition of binding at 10 μM.

“12-isopropylidene-13,13-dimethyl-6,11-ethano-6,11-dihydrobenzo[b]quinolizinium perchlorate (Formula I: R^1 =H; R^2 =R^3 =CH3 ; R^4 and R^5 together =isopropylidene; X^- =ClO4^-) and 12,12-dimethyl-13-isopropylidene-6,11-ethano-6,11-dihydrobenzo[b]quinolizinium perchlorate [Example 16]” had a Ki in experiment [1] of 265 nM.

In the case of `C=C(C)C1(C)CC2c3ccccc3C1c1cccc[n+]12` (single isomer, unassigned) [Example 2, 6,11-ethano-12-isopropenyl-12-methyl-6,11-dihydrobenzo[b]quinolizinium bromide], the 50% inhibitory concentration (IC50) in experiment [2] (Mus musculus, Cortical neurone) turned out to be 7300 nM. Further, in experiment [1], affinity was put at a Ki of 208 nM.

Compound `C=C(C)C1(COC)CC2c3ccccc3C1c1cccc[n+]12.[O-][Cl+3]([O-])([O-])[O-]` (single isomer, unassigned) [Example 4, 6,11-ethano-12-isopropenyl-12-methoxymethyl-6,11-dihydrobenzo[b]quinolizinium perchlorate] showed an inhibition constant (Ki) in experiment [1] of 313 nM.

In the case of `CC(C)(C)C1C2c3ccccc3C(C1C(C)(C)C)[n+]1ccccc12.F[P-](F)(F)(F)(F)F` (single isomer, unassigned) [Example 6, 6,11-ethano-12-tert-butyl13-tert-butyl-6,11-dihydrobenzo[b]quinolizinium hexafluorophosphate], the “[^3 H]TCP (internal screen) Percent (%) inhibition @10 μM” value in experiment [1] amounted to 44%.

In turn, `CC(C)(C)C1C2c3ccccc3C(C1C(C)(C)C)[n+]1ccccc12` (single isomer, unassigned) [Example 7, 6,11-ethano-12-tert-butyl-13-tert-butyl-6,11-dihydrobenzo[b]quinolizinium hexafluorophosphate] displayed a Ki in experiment [1] of 5090 nM.

Regarding `C=CC1CC2c3ccccc3C1c1cccc[n+]12` (single isomer, unassigned) [Example 13(a), 6,11-ethano-12-ethylene-6,11-dihydrobenzo[b]quinolizinium bromide], the “[^3 H]TCP (internal screen) Percent (%) inhibition @10 μM” value in experiment [1] is 49%.

For the compound `c1ccc2c(c1)C1CC3(CCC3)C2c2cccc[n+]21` (stereo not shown) [10(b), 6,11-ethano-12,12-(1'-spirocyclobutane)-6,11-dihydrobenzo[b]-quinoliziniumchloride], in experiment [1], the inhibition constant (Ki) came out at 3110 nM.

Compound `OCC1(CO)CC2c3ccccc3C1c1cccc[n+]12` (stereo not shown) [11(b), 6,11-ethano-12,12-dihydroxymethyl-6,11-dihydrobenzo[b]quinolizinium chloride] gave an inhibition constant Ki in experiment [1] of 1950 nM.

`c1ccc2c(c1)C1CC3(C4CC5CC(C4)CC3C5)C2c2cccc[n+]21` (stereo not shown) [15(b), 6,11-ethano-12,12-(2'-spiro-adamantane)-6,11-dihydrobenzo[b]quinolizinium chloride] showed a Ki in experiment [1] of 5280 nM.

With `CCOCC1(COCC)CC2c3ccccc3C1c1cccc[n+]12` (stereo not shown) [17(b), 12,12-diethoxymethyl-6,11-ethano-6,11-dihydrobenzo[b]quinolizinium chloride], the Ki in experiment [1] turned out to be 353 nM.

On to `C#CC1(C#C)CC2c3ccccc3C1c1cccc[n+]12` (stereo not shown) [18(b), 12,12-diethynyl-6,11-ethano-6,11-dihydrobenzo[b]quinolizinium hexafluorophosphate], for which the affinity in experiment [1], expressed as Ki, was 883 nM.

`CC1(C)C2c3ccccc3C([n+]3ccccc32)C1(C)C.[O-][Cl+3]([O-])([O-])[O-]` (stereo not shown) [Example 1, 6,11-ethano-12, 12, 13,13-tetramethyl-6,11-dihydrobenzo[b]quinolizinium perchlorate] gave an inhibition constant Ki in experiment [1] of 21.2 nM.

`C=C(C)C1(C)CC2c3ccccc3C1c1cccc[n+]12` (stereo not shown) [Example 3, 6,11-ethano-12-isopropenyl-12-methyl-6,11-dihydrobenzo[b]quinolizinium bromide] showed a 50% inhibitory concentration (IC50) in experiment [2] of 5880 nM. The Ki in experiment [1] is 191 nM.

In experiment [2], `C=C(C)C1(C)CC2c3ccccc3C1c1cccc[n+]12` (stereo not shown) [Example 5, 6,11-ethano-12-isopropenyl-12-methyl-6,11dihydrobenzo[b]quinolizinium chloride] returned an IC50 of 2810 nM. In experiment [1], the affinity corresponds to a Ki of 65.2 nM.

`[O-][Cl+3]([O-])([O-])[O-].c1ccc2c(c1)C1CC(C3CC3)(C3CC3)C2c2cccc[n+]21` (stereo not shown) [Example 8, 6,11-ethano-12,12-dicyclopropyl-6,11-dihydrobenzo[b]-quinolizinium perchlorate]: the Ki in experiment [1] was 88.1 nM.

In turn, `c1ccc2c(c1)C1CC(C3CC3)(C3CC3)C2c2cccc[n+]21` (stereo not shown) [Example 9, 6.11-ethano-12,12-dicyclopropyl-6,11-dihydrobenzo[b]quinolizinium chloride] yielded a Ki in experiment [1] of 103 nM.

`C=C(C)C1(C)CC2(C)c3ccccc3C1c1cccc[n+]12.[O-][Cl+3]([O-])([O-])[O-]` (stereo not shown) [Example 12, 6,11-ethano-6-methyl-12-isopropenyl-12-methyl-6,11-dihydrobenzo[b]quinolizinium perchlorate] gave an inhibition constant (Ki) in experiment [1] of 69 nM.

In experiment [1], `CC(C)=CC1C2c3ccccc3C([n+]3ccccc32)C1(C)C` (stereo not shown) [Example 14, 6,11-ethano-12-(2,2-dimethyl)ethylene-13,13-dimethyl-6,11-dihydrobenzo[b]quinolizinium hexafluorophosphate] registered an inhibitory constant (Ki) of 3540 nM.

The compound `CC(C)C1(C(C)C)CC2c3ccccc3C1c1cccc[n+]12` (stereo not shown) [Example 19, 12,12-diisopropyl-6,11-dihydrobenzo[b]quinolizium hexafluorophosphate] had a Ki in experiment [1] of 6010 nM.

With `C=C(C)C1(C)CC2c3ccccc3C1c1cccc[n+]12.[O-][Cl+3]([O-])([O-])[O-]` (stereo not shown) [Example 20, 6,11-ethano-12-isopropenyl-12-methyl-6,11-dihydrobenzo[b]quinolizinium perchlorate], the “[^3 H]TCP (external screen) Percent inhibition (%) @10 μM” value in experiment [3] came out at 94%. For the same compound, in experiment [1], the “binding to the PCP receptor (in words)” value is “found to bind to the PCP receptor” and the Ki turned out to be 45.7 nM.
